Data from patent US20220267268A1, “NEW TRICYCLIC 5-HT2 ANTAGONISTS” (Anamar AB, priority 2019, published 2022).
Where a name gives a salt, the structure may show the parent alone. Marks after values point to notes of the source that are not given here.

Experiments:
5-HT2B receptor [1] = target: T1, 5-HT2B receptor (Homo sapiens, UniProt P41595); assay: 5-HT2B receptor binding, ligand displacement assay with 3H-LSD radioligand; conditions: human receptor in CHO-K1; for inhibition at 0.001 µM: 1 nM compound; for inhibition at 0.01 µM: 10 nM compound; for inhibition at 0.1 µM: 100 nM compound
T1 construct: host or cells: CHO-K1
Procedure: (§1) 5-HT2B receptor binding (performed at Eurofins Panlabs Taiwan, Ltd.) to human receptor protein expressed in CHO-K1 cells was determined in a ligand displacement assay using ^3H-lysergic acid diethylamide (LSD) as radioligand and ketanserine as a standard reference compound, or alternatively*, with ^3H-mesulergine and SB 206553 as reference. Data is presented as % displacement of radioligand at indicated compound concentrations, see Table 1.

5-HT2B receptor [2] = target: T1, 5-HT2B receptor; assay: 5-HT2B receptor binding, ligand displacement assay, alternative (*) with 3H-mesulergine; conditions: * 3H-mesulergine radioligand, SB 206553 reference; for 5-HT2B receptor binding (% displacement) 1 nM: 1 nM compound; for inhibition at 0.01 µM: 10 nM compound; for 5-HT2B receptor binding (% displacement) 100 nM: 100 nM compound
Procedure: as §1

5-HT2B receptor [3] = target: T1, 5-HT2B receptor; assay: 5-HT2B receptor antagonism, inhibition of 5-HT stimulated IP-1 accumulation (HTRF) in CHO-K1 cells; type: cell-based; conditions: 5-HT (5 nM) stimulated IP-1 accumulation
Procedure: (§2) 5-HT2B receptor antagonism (performed at Eurofins Panlabs Taiwan, Ltd.) was determined in CHO-K1 cells expressing human receptor protein as inhibition of 5-HT (5 nM) stimulated IP-1 accumulation measured by HTRF quantitation. SB 206553 was used as a standard reference compound. The antagonistic response is expressed as % inhibition of the 5-HT induced effect, see Table 2.

5-HT2B receptor [4] = target: T1, 5-HT2B receptor; assay: 5-HT2B receptor agonism, IP-1 accumulation in CHO-K1 cells without prior 5-HT stimulation; type: cell-based; conditions: % of IP-1 accumulation induced by 5-HT (1 uM)
Procedure: as §2
5-HT2B receptor agonism (performed at Eurofins Panlabs Taiwan, Ltd.) was determined in the same model as described above in Example 50 without prior stimulation with 5-HT. The agonistic response is expressed as % of the IP-1 accumulation induced by 5-HT (1 uM) stimulation, see Table 3.

T1 sequence (P41595 whole entry): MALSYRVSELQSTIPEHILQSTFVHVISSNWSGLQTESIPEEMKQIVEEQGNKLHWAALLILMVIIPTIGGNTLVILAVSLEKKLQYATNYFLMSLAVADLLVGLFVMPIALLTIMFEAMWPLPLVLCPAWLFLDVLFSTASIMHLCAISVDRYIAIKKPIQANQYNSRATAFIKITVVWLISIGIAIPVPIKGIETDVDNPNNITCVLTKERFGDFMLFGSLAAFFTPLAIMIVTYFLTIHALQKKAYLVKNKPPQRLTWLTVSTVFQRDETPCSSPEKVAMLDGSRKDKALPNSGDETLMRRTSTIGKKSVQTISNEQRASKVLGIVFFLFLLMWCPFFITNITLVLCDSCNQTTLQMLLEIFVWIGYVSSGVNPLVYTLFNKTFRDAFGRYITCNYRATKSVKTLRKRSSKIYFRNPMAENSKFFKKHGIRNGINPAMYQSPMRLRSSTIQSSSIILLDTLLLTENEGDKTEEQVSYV

Row | SMILES | inhibition at 0.001 µM (5-HT2B receptor [1]) [%] | inhibition at 0.01 µM (5-HT2B receptor [1]) [%] | inhibition at 0.1 µM (5-HT2B receptor [1]) [%] | further results
1 | CNC(=N)N1CC(C)c2c1ccc1ccccc21 (stereo not shown) [Example 6, N,1-Dimethyl-1,2-dihydro-3H-benzo[e]indole-3-carboximidamide hydrochloride] | 18 | 57 | 93 | –
2 | C#Cc1cccc2c3c(ccc12)N(C(=N)N)CC3C (stereo not shown) [Example 40, 6-Ethynyl-1-methyl-1,2-dihydro-3H-benzo[e]indole-3-carboximidamide 2,2,2-trifluoroacetic acid salt] | – | – | – | 5-HT2B receptor binding (% displacement) 1 nM (5-HT2B receptor [2]): 26* %; inhibition at 0.01 µM (5-HT2B receptor [2]): 64%; 5-HT2B receptor binding (% displacement) 100 nM (5-HT2B receptor [2]): 94* %
3 | CC1CN(C(=N)N)c2ccc3c(Br)cccc3c21.Cl (stereo not shown) [Example 2, 6-Bromo-1-methyl-1,2-dihydro-3H-benzo[e]indole-3-carboximidamide hydrochloride] | 72 | 96 | 98 | inhibition at 0.001 µM (5-HT2B receptor [3]; 1 nM compound): 56%; inhibition at 0.01 µM (5-HT2B receptor [3]; 10 nM compound): 91%; inhibition at 0.1 µM (5-HT2B receptor [3]; 100 nM compound): 95%; inhibition at 1 µM (5-HT2B receptor [3]; 1000 nM compound): 96%; 5-HT2B receptor agonism (% of positive control) 1 nM (5-HT2B receptor [4]; 1 nM compound): −3%; 5-HT2B receptor agonism (% of positive control) 10 nM (5-HT2B receptor [4]; 10 nM compound): −5%; 5-HT2B receptor agonism (% of positive control) 100 nM (5-HT2B receptor [4]; 100 nM compound): −3%; 5-HT2B receptor agonism (% of positive control) 1000 nM (5-HT2B receptor [4]; 1000 nM compound): −4%
4 | COc1cccc2c3c(ccc12)N(C(=N)N)CC3C (stereo not shown) [Example 36, 6-Methoxy-1-methyl-1,2-dihydro-3H-benzo[e]indole-3-carboximidamide 2,2,2-trifluoroacetic acid salt] | – | – | – | 5-HT2B receptor binding (% displacement) 1 nM (5-HT2B receptor [2]): 10* %; inhibition at 0.01 µM (5-HT2B receptor [2]): 48%; 5-HT2B receptor binding (% displacement) 100 nM (5-HT2B receptor [2]): 90* %
5 | CCCc1cccc2c3c(ccc12)N(C(=N)N)CC3C (stereo not shown) [Example 43, 1-Methyl-6-propyl-1,2-dihydro-3H-benzo[e]indole-3-carboximidamide hydrochloride] | 21 | 70 | 96 | –
6 | CCCCNC(=N)N1CC(C)c2c1ccc1ccccc21 (stereo not shown) [Example 7, N-Butyl-1-methyl-1,2-dihydro-3H-benzo[e]indole-3-carboximidamide hydrochloride] | 32 | 77 | 96 | –
7 | CC1CN(C(=N)NCc2ccc(F)c(F)c2)c2ccc3ccccc3c21 (stereo not shown) [Example 10, N-(3,4-Difluorobenzyl)-1-methyl-1,2-dihydro-3H-benzo[e]indole-3-carboximidamide hydrochloride] | 7 | 50 | 91 | –
8 | C#CCNC(=N)N1CC(C)c2c1ccc1c(Br)cccc21 (stereo not shown) [Example 18, 6-Bromo-1-methyl-N-(prop-2-yn-1-yl)-1,2-dihydro-3H-benzo[e]indole-3-carboximidamide 2,2,2-trifluoroacetic acid salt] | – | 104 | – | –
9 | CC1CN(C(=N)N)c2ncc3ccccc3c21 (stereo not shown) [Example 4, 1-Methyl-1,2-dihydro-3H-pyrrolo[2,3-c]isoquinoline-3-carboximidamide hydrochloride] | -1 | 16 | 64 | –
10 | CC1CN(C(=N)N)c2ccc3c(C(F)(F)F)cccc3c21 (stereo not shown) [Example 35, 1-Methyl-6-(trifluoromethyl)-1,2-dihydro-3H-benzo[e]indole-3-carboximidamide 2,2,2-trifluoroacetic acid salt] | 11 | 61 | 92 | 5-HT2B receptor binding (% displacement) 1 nM (5-HT2B receptor [2]): 21%; inhibition at 0.01 µM (5-HT2B receptor [2]): 52%; 5-HT2B receptor binding (% displacement) 100 nM (5-HT2B receptor [2]): 91%
11 | COCCNC(=N)N1CC(C)c2c1ccc1c(Br)cccc21 (stereo not shown) [Example 23, 6-Bromo-N-(2-methoxyethyl)-1-methyl-1,2-dihydro-3H-benzo[e]indole-3-carboximidamide 2,2,2-trifluoroacetic acid salt] | – | 100 | – | –
12 | CC1CN(C(=N)N)c2cnc3ccccc3c21 (stereo not shown) [Example 5, 1-Methyl-1,2-dihydro-3H-pyrrolo[2,3-c]quinoline-3-carboximidamide hydrochloride] | 11 | 28 | 71 | –
13 | CC1CN(C(=N)N)c2ccc3c([S+](C)[O-])cccc3c21 (stereo not shown) [Example 38, 1-Methyl-6-(methylsulfinyl)-1,2-dihydro-3H-benzo[e]indole-3-carboximidamide 2,2,2-trifluoroacetic acid salt] | – | – | – | 5-HT2B receptor binding (% displacement) 1 nM (5-HT2B receptor [2]): 4* %; inhibition at 0.01 µM (5-HT2B receptor [2]): 7%; 5-HT2B receptor binding (% displacement) 100 nM (5-HT2B receptor [2]): 20* %
14 | CC1CN(C(=N)N)c2ccc3c(S(C)(=O)=O)cccc3c21 (stereo not shown) [Example 39, 1-Methyl-6-(methylsulfonyl)-1,2-dihydro-3H-benzo[e]indole-3-carboximidamide 2,2,2-trifluoroacetic acid salt] | – | – | – | 5-HT2B receptor binding (% displacement) 1 nM (5-HT2B receptor [2]): 6* %; inhibition at 0.01 µM (5-HT2B receptor [2]): 8%; 5-HT2B receptor binding (% displacement) 100 nM (5-HT2B receptor [2]): 28* %
15 | CC1CN(C(=N)NCC(F)(F)F)c2ccc3c(Br)cccc3c21 (stereo not shown) [Example 22, 6-Bromo-1-methyl-N-(2,2,2-trifluoroethyl)-1,2-dihydro-3H-benzo[e]indole-3-carboximidamide 2,2,2-trifluoroacetic acid salt] | – | 95 | – | –
16 | CC1CN(C(=N)N)c2cc(F)c3c(Cl)cccc3c21 (stereo not shown) [Example 45, 6-Chloro-5-fluoro-1-methyl-1,2-dihydro-3H-benzo[e]indole-3-carboximidamide hydrochloride] | 77 | 100 | 98 | –
17 | CC1CN(C(=N)N)c2ccc3c(C4CC4)cccc3c21 (stereo not shown) [Example 42, 6-Cyclopropyl-1-methyl-1,2-dihydro-3H-benzo[e]indole-3-carboximidamide hydrochloride] | 1 | 56 | 96 | –
18 | CC1CN(C(=N)Nc2ccc(F)cc2)c2ccc3c(Br)cccc3c21 (stereo not shown) [Example 30, 6-Bromo-N-(4-fluorophenyl)-1-methyl-1,2-dihydro-3H-benzo[e]indole-3-carboximidamide 2,2,2-trifluoroacetic acid salt] | – | 105 | – | –
19 | CC1CN(C(=N)NCc2ccccc2)c2ccc3ccccc3c21 (stereo not shown) [Example 8, N-Benzyl-1-methyl-1,2-dihydro-3H-benzo[e]indole-3-carboximidamide hydrochloride] | 30 | 80 | 99 | –
20 | CC1CN(C(=N)N)c2ccc3c(-c4ccccc4)cccc3c21 (stereo not shown) [Example 41, 1-Methyl-6-phenyl-1,2-dihydro-3H-benzo[e]indole-3-carboximidamide hydrochloride] | 0 | 7 | 40 | –
21 | CC1CN(C(=N)N)c2ccc3c(I)cccc3c21 (stereo not shown) [Example 34, 6-Iodo-1-methyl-1,2-dihydro-3H-benzo[e]indole-3-carboximidamide 2,2,2-trifluoroacetic acid salt] | – | – | – | 5-HT2B receptor binding (% displacement) 1 nM (5-HT2B receptor [2]): 30* %; inhibition at 0.01 µM (5-HT2B receptor [2]): 88%; 5-HT2B receptor binding (% displacement) 100 nM (5-HT2B receptor [2]): 102* %
22 | CC1CN(C(=N)NCc2ccc(Cl)cc2)c2ccc3ccccc3c21 (stereo not shown) [Example 9, N-(4-Chlorobenzyl)-1-methyl-1,2-dihydro-3H-benzo[e]indole-3-carboximidamide hydrochloride] | 26 | 55 | 95 | –
23 | CC1CN(C(=N)NCc2ccc(F)cc2)c2ccc3c(Br)cccc3c21 (stereo not shown) [Example 26, 6-Bromo-N-(4-fluorobenzyl)-1-methyl-1,2-dihydro-3H-benzo[e]indole-3-carboximidamide 2,2,2-trifluoroacetic acid salt] | 43 | 90 | 98 | –
24 | CCCCNC(=N)N1CC(C)c2c1ccc1c(Br)cccc21 (stereo not shown) [Example 15, 6-Bromo-N-butyl-1-methyl-1,2-dihydro-3H-benzo[e]indole-3-carboximidamide 2,2,2-trifluoroacetic acid salt] | – | 103 | – | –
25 | CSc1cccc2c3c(ccc12)N(C(=N)N)CC3C (stereo not shown) [Example 37, 1-Methyl-6-(methylthio)-1,2-dihydro-3H-benzo[e]indole-3-carboximidamide 2,2,2-trifluoroacetic acid salt] | – | – | – | 5-HT2B receptor binding (% displacement) 1 nM (5-HT2B receptor [2]): 5* %; inhibition at 0.01 µM (5-HT2B receptor [2]): 53%; 5-HT2B receptor binding (% displacement) 100 nM (5-HT2B receptor [2]): 94* %
26 | COc1cc2c(c3ccccc13)C(C)CN2C(=N)N (stereo not shown) [Example 44, 5-Methoxy-1-methyl-1,2-dihydro-3H-benzo[e]indole-3-carboximidamide hydrochloride] | 9 | 13 | 70 | –
